Data from article PMC11874007, “Switching Roles—Exploring Concentration-Dependent Agonistic versus Antagonistic Behavior of Integrin Ligands” (Journal of Medicinal Chemistry, 2025).
Non-standard residues stand in square brackets, D forms with d. NMeV = CN[C@H](C(=O)O)C(C)C

Tests used:
[1] = target: T1, human αvβ6-integrin (Homo sapiens, UniProt P06756+P18564); details: previously published values; cited from earlier work
T1 construct: purchased R&D 3817-AV-050

[2] = target: T2, human αvβ3-integrin (Homo sapiens, UniProt P05106+P06756); details: previously published values; cited from earlier work
T2 construct: purchased R&D 3050-AV-050

[3] = target: T3, human α5β1-integrin (Homo sapiens, UniProt P05556+P08648); details: previously published values; cited from earlier work
T3 construct: purchased R&D 3230-A5-050

[4] = system: α5β1+ OV-MZ-6 cells; test: Wound scratch cell migration assay, OV-MZ-6 cells; type: cell-based; details: OV-MZ-6 cells
Description: (§1) As a biological readout for integrin signaling, we analyzed ligand effects on cell adhesion and migration by wound scratch assays (Figure 10A,B). […] Microscopical images were taken directly after wounding the cell monolayers and then after 9, 24, 48, and 72 h, respectively.
(§2) Figure 10 (A) Effect of integrin ligands on cancer cell migration. […] Microscopical measurements of wound gaps were taken directly after setting the wound scratch and then after 9, 24, 48, and 72 h, respectively. Wound scratch assays were repeated at least three times. The extent of wound gap closure [%]/cell coverage was calculated by a python script utilizing Canny’s Edge Detection algorithm as described under Materials and summarized in the corresponding histograms (see also Scheme S5 in the Supporting Information). (B) Adhesion of M21, OV-MZ-6, and HN cells in the presence of the respective integrin targeting ligand at low (1 nM) and high (1 μM) concentrations. […] Depicted are typical microscopical images of the respective cell monolayers.
(§3) The assays were performed according to a modified protocol as previously published.[94] Cells were cultivated on fibronectin-coated 12-well cell culture plates until cell monolayers reached an approximately 80% confluency. Then, the wound scratch was set utilizing a 200 μL pipet tip. Subsequently, fresh culture medium was added in the absence or presence of L1–L5 (concentration: 1 μM or 1 nM), and microscopical images (Zeiss, Oberkochen, Germany) were taken at two identical positions of the wound gap directly after wounding and then at 9, 24, 48, or 72 h of further cell cultivation. Each wound scratch assay was repeated three times. A custom python script was implemented to analyze wound gap closure over time: after cropping the images, we used the OpenCV[95] implementation of Canny’s Edge Detection Algorithm[96] to ensure reliable measurements even with variable lighting conditions.[97] As a first step, a 5 × 5 Gaussian filter was applied to remove background noise. The smoothened images were then filtered by a Sobel kernel[98] and the magnitude and direction of the intensity gradient of the images calculated. Then, a non-maximum suppression algorithm was applied to identify relevant pixels that presumably contribute to edges. In a final step, threshold hysteresis was utilized to distinguish true edges from variations in intensity or the remaining background noise. The resulting images were then segmented and binarized by use of a grid filter and analyzed with respect to cell-covered area relative to the start image of each series.
Scheme S5. Effect of integrin ligands on cancer cell migration (control cells to Fig. 10A in the main manuscript). a) Integrin αvβ3- OV-MZ-6 cells, α5β1- M21 cells, α5β1+ and αvβ3- and […]
mages of wound gaps were taken directly after setting the wound scratch and then after […], respectively. Wound scratch assays were repeated at least 3 times. The extent of wound gap closure [%]/cell coverage was calculated by a python script utilizing Canny’s Edge Detection algorithm11 as described in the Experimental Section and summarized in the corresponding histograms.
(1 picture or pasted object on this page, not shown here)

[5] = system: tumor angiogenesis; details: low dose; cited from earlier work
[6] = system: M21 cells; test: Cell adhesion in the presence of ligand, M21 cells; type: cell-based; details: 1 μM
Description: as §2

[7] = system: glioblastoma; details: phase II and III trials; cited from earlier work
[8] = system: FAK, p-FAK, p44/42erk-1/2, p-p44/42erk-1/2 in αvβ3+ M21 cells; test: Western blot of FAK and p44/42erk-1/2 expression and activation, M21 cells; type: cell-based
Description: (§4) Since agonistic ligand performance requires integrin activation and signaling, by Western blot analysis, we studied whether the different ligands alter the expression levels and activation states of FAK and p44/42^(erk-1/2). For this, the respective target integrin-expressing tumor cell types were incubated with the corresponding subtype-selective ligand at a concentration of 1 μM for 24 h (Figure 8). […] Signal intensities of FAK and p44/42^(erk-1/2) expression and activation (p-FAK and p-p44/42^(erk-1/2)) on Western blots were evaluated by densitometry. Data are depicted as GAPDH-normalized fluorescence signal intensities as n-fold, by setting values obtained for the respective untreated cells to “1”. […] MAPK p44/42^(erk-1/2) expression was approximately 2.2-fold augmented, p44/42^(erk-1/2) by approximately 2.5-fold. It also raised activation of p-FAK and p-p44/42^(erk-1/2) by approximately 2.2-fold and 3.1-fold, respectively, in α5β1+ OV-MZ-6 cells. […] Additionally, it raised FAK (approximately 1.7-fold) and p-p44/42^(erk-1/2) (approximately 2.4-fold) in α5β1+ OV-MZ-6 cells.
(§5) Figure 8 Effects of ligands on cellular expression and activation of integrin-related signaling molecules FAK and p44/42^(erk-1/2). […] Signal intensities for FAK and p-FAK, respectively, were evaluated by use of the Bio-Rad Imager Gel Doc XR+ and a ChemiDoc XRS+ Systems and the software Image Lab. Shown are typical representative Western blot images and the corresponding histograms depicting GAPDH-normalized signal intensities as n-fold by setting the values obtained for untreated cells to “1” (drawn as black line). For each cell line, cutouts of identical gels are depicted.
(§6) In order to capture early and transient changes in signaling activation following ligand treatment, we next reduced the observation periods to 5, 30, or 60 min and assessed FAK expression and activation. […] Depicted are typical Western blot images and the corresponding densitometrical evaluations of GAPDH-normalized signal intensities as n-fold, by setting that of the respective untreated cell type to “1” (Figure 9). […]
(§7) The kinases (p-)p44/42^(erk-1/2) and (p-)FAK were detected as previously published.[15],[8] Briefly, cells were grown for 18 h on six-well plates in DMEM (0.45 Mio cells/well). After medium exchange, fresh medium with L1–L5 (concentration: 1.0 μM, 2 mL/well) was added, and cells were incubated for another 24 h at 37 °C. In a second series, cells were incubated with L1–L5 (1 μM or 1 nM) for 5, 30, or 60 min. Thereafter, the cellular proteins were extracted and processed by Western blotting. Proteins were visualized using the Pierce ECL chemiluminescent substrate (Thermo Fisher Scientific). Band signal intensities for (p-)p44/42^(erk-1/2) and (p-)FAK were evaluated using the Bio-Rad Imager Gel Doc XR + and ChemiDoc XRS + Systems and the software Image Lab. Differences in protein loading and blotting efficiency were normalized by reprobing the membranes with a monoclonal antibody directed to GAPDH. Signal intensities for protein bands of interest were normalized to those recorded for GAPDH. Typical Western blot images are depicted together with histograms summarizing the mean values of normalized fluorescence signal intensities as n-fold, by setting those obtained for untreated cells to “1”.

[9] = system: FAK, p-FAK, p44/42erk-1/2, p-p44/42erk-1/2 in α5β1+ OV-MZ-6 cells; test: Western blot of FAK and p44/42erk-1/2 expression and activation, OV-MZ-6 cells; type: cell-based; details: 1 μM, 5, 30 or 60 min
Description: as §4, §5, §6, §7

[10] = system: αvβ3+ M21 cells; test: Wound scratch cell migration assay, M21 cells; type: cell-based
Description: as §1, §2, §3

T3 sequence (P08648 42-995 limits assumed): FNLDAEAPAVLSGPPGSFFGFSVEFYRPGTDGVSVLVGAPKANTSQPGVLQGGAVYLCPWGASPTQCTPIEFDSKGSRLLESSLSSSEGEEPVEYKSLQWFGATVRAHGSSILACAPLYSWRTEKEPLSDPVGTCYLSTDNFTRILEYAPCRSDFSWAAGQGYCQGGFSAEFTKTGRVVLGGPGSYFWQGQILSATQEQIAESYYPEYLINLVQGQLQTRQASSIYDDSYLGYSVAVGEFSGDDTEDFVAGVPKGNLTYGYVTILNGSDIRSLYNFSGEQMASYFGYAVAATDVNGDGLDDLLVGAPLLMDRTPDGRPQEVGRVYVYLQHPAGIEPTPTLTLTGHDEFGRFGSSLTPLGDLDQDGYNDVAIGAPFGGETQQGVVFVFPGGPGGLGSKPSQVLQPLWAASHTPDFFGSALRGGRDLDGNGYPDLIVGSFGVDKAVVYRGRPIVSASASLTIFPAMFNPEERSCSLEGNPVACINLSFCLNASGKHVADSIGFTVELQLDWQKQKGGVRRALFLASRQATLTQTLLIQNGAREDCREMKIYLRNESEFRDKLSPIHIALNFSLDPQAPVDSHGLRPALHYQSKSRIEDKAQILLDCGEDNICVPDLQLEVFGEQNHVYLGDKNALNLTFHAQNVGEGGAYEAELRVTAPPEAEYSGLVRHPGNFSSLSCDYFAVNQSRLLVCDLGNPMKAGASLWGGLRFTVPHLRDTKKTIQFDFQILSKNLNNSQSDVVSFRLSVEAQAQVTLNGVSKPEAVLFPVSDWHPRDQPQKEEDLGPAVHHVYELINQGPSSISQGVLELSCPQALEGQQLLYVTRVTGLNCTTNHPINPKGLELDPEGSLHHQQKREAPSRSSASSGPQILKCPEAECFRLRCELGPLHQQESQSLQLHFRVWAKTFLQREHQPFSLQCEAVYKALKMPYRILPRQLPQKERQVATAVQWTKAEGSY
T3 sequence (P05556 21-728 limits assumed): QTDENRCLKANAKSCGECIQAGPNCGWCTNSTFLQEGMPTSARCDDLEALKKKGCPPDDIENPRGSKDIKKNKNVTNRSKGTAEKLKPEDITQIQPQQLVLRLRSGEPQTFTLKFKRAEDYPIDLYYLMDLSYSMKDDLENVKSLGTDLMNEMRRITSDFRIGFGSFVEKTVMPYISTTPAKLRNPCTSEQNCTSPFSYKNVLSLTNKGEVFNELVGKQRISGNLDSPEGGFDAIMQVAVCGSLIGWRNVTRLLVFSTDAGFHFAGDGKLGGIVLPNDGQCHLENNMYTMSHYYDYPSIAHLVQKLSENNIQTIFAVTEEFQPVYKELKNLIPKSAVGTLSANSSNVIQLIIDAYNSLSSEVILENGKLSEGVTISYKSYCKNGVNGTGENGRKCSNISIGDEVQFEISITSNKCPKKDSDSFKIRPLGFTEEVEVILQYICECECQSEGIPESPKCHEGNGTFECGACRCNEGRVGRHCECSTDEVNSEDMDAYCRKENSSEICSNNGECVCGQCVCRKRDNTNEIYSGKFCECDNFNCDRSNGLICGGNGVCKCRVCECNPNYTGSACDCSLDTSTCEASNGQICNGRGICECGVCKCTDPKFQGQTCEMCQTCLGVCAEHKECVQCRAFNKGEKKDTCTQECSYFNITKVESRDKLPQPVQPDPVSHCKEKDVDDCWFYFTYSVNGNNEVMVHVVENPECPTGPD
T1 sequence (P06756 31-992 limits assumed): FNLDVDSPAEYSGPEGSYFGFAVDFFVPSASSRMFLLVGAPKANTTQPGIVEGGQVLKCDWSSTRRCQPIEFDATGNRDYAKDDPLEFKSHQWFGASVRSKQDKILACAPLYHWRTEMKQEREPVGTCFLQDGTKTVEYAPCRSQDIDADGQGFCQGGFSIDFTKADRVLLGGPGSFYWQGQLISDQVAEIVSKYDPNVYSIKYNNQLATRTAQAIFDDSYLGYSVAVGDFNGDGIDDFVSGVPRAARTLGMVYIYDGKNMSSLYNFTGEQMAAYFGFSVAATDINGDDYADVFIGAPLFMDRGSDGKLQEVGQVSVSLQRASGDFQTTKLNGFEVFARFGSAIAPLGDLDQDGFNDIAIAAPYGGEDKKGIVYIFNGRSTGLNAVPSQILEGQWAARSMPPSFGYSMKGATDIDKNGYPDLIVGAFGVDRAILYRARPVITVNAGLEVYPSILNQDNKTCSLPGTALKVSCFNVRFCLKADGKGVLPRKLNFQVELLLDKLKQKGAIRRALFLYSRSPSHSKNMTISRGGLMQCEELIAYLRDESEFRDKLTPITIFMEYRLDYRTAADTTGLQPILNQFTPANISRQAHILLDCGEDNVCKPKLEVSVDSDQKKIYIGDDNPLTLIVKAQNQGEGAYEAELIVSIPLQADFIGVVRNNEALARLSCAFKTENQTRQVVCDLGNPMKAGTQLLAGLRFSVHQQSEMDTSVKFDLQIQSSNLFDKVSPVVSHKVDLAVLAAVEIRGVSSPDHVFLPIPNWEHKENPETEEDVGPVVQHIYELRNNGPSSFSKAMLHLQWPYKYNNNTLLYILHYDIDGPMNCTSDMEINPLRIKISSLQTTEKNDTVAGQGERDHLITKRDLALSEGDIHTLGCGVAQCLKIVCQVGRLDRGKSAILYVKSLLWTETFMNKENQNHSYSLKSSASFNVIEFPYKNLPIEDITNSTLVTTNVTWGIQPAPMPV
T1 sequence (P18564 22-707 limits assumed): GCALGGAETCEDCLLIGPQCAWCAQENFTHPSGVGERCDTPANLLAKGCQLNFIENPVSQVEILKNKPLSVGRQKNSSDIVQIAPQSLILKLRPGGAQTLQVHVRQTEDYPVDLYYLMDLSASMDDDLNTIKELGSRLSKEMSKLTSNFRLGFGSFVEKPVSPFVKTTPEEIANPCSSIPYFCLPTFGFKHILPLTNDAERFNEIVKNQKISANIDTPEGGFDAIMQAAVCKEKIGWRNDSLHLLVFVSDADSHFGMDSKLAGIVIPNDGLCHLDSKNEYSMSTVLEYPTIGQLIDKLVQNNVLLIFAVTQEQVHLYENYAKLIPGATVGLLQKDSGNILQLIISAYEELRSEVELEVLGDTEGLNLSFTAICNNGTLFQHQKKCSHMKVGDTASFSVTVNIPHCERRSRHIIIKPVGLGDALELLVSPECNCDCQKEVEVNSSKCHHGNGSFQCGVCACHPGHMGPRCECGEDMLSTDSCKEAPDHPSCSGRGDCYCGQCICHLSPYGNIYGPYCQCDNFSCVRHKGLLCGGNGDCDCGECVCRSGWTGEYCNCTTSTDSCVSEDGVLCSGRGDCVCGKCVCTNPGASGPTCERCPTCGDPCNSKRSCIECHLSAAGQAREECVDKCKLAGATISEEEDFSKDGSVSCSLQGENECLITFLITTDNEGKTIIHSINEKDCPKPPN
T2 sequence (P06756 31-992 limits assumed): as the sequence (P06756 31-992 limits assumed) above
T2 sequence (P05106 27-718 limits assumed): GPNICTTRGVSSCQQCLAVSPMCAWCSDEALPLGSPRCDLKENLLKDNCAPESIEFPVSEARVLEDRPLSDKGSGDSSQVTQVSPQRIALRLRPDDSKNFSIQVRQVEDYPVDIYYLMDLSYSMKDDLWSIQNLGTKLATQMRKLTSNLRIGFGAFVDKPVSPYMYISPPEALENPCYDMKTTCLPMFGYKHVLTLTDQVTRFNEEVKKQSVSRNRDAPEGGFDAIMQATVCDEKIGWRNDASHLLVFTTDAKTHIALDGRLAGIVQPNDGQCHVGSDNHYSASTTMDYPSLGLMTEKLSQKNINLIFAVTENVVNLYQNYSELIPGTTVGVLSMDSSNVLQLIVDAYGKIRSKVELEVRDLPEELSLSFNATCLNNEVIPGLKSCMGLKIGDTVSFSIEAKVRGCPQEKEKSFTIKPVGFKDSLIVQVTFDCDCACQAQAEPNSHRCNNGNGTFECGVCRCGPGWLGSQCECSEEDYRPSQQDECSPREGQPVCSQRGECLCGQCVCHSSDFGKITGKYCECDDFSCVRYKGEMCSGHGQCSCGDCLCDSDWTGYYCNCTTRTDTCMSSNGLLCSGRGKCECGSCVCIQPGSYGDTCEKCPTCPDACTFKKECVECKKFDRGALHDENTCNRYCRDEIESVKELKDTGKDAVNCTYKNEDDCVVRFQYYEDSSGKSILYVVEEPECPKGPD

Row | Substance | IC50 [1] [nM] | IC50 [2] [nM] | IC50 [3] [nM] | Effect on wound gap closure / cell migration ([4]; 1 nM) | Cell coverage (wound gap closure) ([4]; 1 μM, within 72 h) | Effect on tumor angiogenesis [5] | Effect on cell adhesion / attachment [6] | Effect on cell adhesion / attachment ([6]; listed as CIL/L2) | Clinical efficacy [7] | FAK expression versus untreated cells ([8]; 1 nM, 5, 30 or 60 min) | FAK expression versus untreated cells ([8]; 1 μM, 5, 30 or 60 min) | Decrease of p-FAK levels within 60 min ([8]; both concentrations (1 nM, 1 μM)) | p-FAK levels versus untreated cells ([8]; both concentrations (1 nM, 1 μM), up to 60 min) | FAK expression versus untreated cells [9] | Effect on wound gap closure / cell migration ([10]; 1 nM) | Effect on wound gap closure / cell migration ([10]; 1 μM) | Reduction of wound gap closure ([10]; 1 μM, after 9 h) | Cell coverage (wound gap closure) ([10]; 1 μM, within 72 h)
1 | RTDLDSLRT [linear peptide, internal standard for αvβ6, reference compound] | 29.5 ± 4.5 | > 1000 | > 1000 | – | – | – | – | – | – | – | – | – | – | – | – | – | – | –
2 | c(RGDf(NMe)V) (cyclo(RGD[dF][NMeV])) [cilengitide (L2), reference compound] | – | – | – | not effective | approximately 60% | rather promoted than inhibited tumor angiogenesis | abrogating adhesion and spreading | performed as inhibitors of cell attachment | poor clinical efficacy | comparable to or slightly higher than in untreated | comparable to or slightly higher than in untreated | approximately threefold | almost comparable to that in untreated M21 cells | comparable to or slightly higher than in untreated | increased wound gap closure | markedly delaying wound gap closure | approximately threefold | approximately 40%
